Reference: patent US6737383B1, “Herbicidal oxadiazolidines” (priority 1999, dated 2004)

What was measured:
bedstraw = assay: Test B pre/postemergence bedstraw; assay type: in vivo, Galium aparine
Outline: (§1)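 Herbicidal effect was estimated by eye on a ten-point control scale after plants spent twelve to sixteen days in a greenhouse following soil or foliar treatment. Foliar sprays targeted plants at one to four leaves; all doses were formulated in a non-phytotoxic solvent with surfactant.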

blackgrass = assay: Test B pre/postemergence blackgrass; assay type: in vivo, Alopecurus myosuroides
Outline: as §1

surinam grass = assay: Test B pre/postemergence surinam grass; assay type: in vivo, Brachiaria decumbens
Outline: as §1

cocklebur = assay: Test B pre/postemergence cocklebur; assay type: in vivo, Xanthium strumarium
Outline: as §1

corn = assay: Test B pre/postemergence corn; assay type: in vivo, Zea mays
Outline: as §1

giant foxtail = assay: Test B pre/postemergence giant foxtail; assay type: in vivo, Setaria faberii
Outline: as §1

morningglory = assay: Test B pre/postemergence morningglory; assay type: in vivo, Ipomoea hederacea
Outline: as §1

pigweed = assay: Test B pre/postemergence pigweed; assay type: in vivo, Amaranthus retroflexus
Outline: as §1

rape = assay: Test B pre/postemergence rape; assay type: in vivo, Brassica napus
Outline: as §1

soybean = assay: Test B pre/postemergence soybean; assay type: in vivo, Glycine max
Outline: as §1

sugar beet = assay: Test B pre/postemergence sugar beet; assay type: in vivo, Beta vulgaris
Outline: as §1

velvetleaf = assay: Test B pre/postemergence velvetleaf; assay type: in vivo, Abutilon theophrasti
Outline: as §1

wheat = assay: Test B pre/postemergence wheat; assay type: in vivo, Triticum aestivum
Outline: as §1

wild oat = assay: Test B pre/postemergence wild oat; assay type: in vivo, Avena fatua
Outline: as §1

rice = assay: Test B flood test rice; assay type: in vivo, Oryza sativa
Outline: (§2)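 Each value is a visual injury score relative to controls, with 10 meaning complete control and 0 no effect. Evaluation took place twelve to sixteen days after the 2-leaf-stage plants were treated and kept in the greenhouse.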

smallflower flatsedge = assay: Test B flood test smallflower flatsedge; assay type: in vivo, Cyperus difformis
Outline: as §2

[1] = Postemergence, Rate 125 g/ha, scale of 0 to 10 where 0 is no effect and 10 is complete control
[2] = Preemergence, Rate 62 g/ha, scale of 0 to 10 where 0 is no effect and 10 is complete control
[3] = Preemergence, Rate 125 g/ha, 0 is no effect, 10 is complete control
[4] = Preemergence, Rate 250 g/ha, scale 0 to 10, 0 is no effect, 10 is complete control
[5] = Preemergence, Rate 500 g/ha, scale 0 to 10 (0 no effect, 10 complete control)
[6] = Rate 62 g/ha, Postemergence, scale of 0 to 10 where 0 is no effect and 10 is complete control
[7] = Rate 250 g/ha, Postemergence, scale 0 to 10, 0 is no effect, 10 is complete control
[8] = Rate 500 g/ha, Postemergence, scale 0 to 10
[9] = Postemergence (flood test species), Rate 125 g/ha, scale of 0 to 10 where 0 is no effect and 10 is complete control
[10] = Rate 62 g/ha, Postemergence section, flood test species, scale of 0 to 10 where 0 is no effect and 10 is complete control
[11] = Rate 250 g/ha, Postemergence (flood test), scale 0 to 10, 0 is no effect, 10 is complete control
[12] = Rate 500 g/ha, listed under Postemergence (flood test species), scale 0 to 10

CC(C)N(C(=O)n1oc(=O)n(-c2nc(Cl)sc2Cl)c1=O)c1ccc(F)cc1 [Compound 160]
0: Bedstraw plant response rating (bedstraw; [1]) | Bedstraw plant response rating (bedstraw; [2]) | Bedstraw plant response rating (0 to 10 scale) (bedstraw; [3]) | Bedstraw plant response rating (bedstraw; [4]) | Bedstraw plant response rating (bedstraw; [5]) | Bedstraw plant response rating (bedstraw; [6]) | Plant response rating, Bedstraw (bedstraw; [7]) | Bedstraw plant response rating (bedstraw; [8]) | Blackgrass plant response rating (blackgrass; [1]) | Blackgrass plant response rating (blackgrass; [2]) | Blackgrass plant response rating (0 to 10 scale) (blackgrass; [3]) | Blackgrass plant response rating (blackgrass; [4]) | Blackgrass plant response rating (blackgrass; [5]) | Blackgrass plant response rating (blackgrass; [6]) | Plant response rating, Blackgrass (blackgrass; [7]) | Blackgrass plant response rating (blackgrass; [8]) | B. signalgrass plant response rating (surinam grass; [1]) | B. signalgrass plant response rating (surinam grass; [2]) | B. signalgrass plant response rating (0 to 10 scale) (surinam grass; [3]) | B. signalgrass plant response rating (surinam grass; [4]) | B. signalgrass plant response rating (surinam grass; [5]) | B. signalgrass plant response rating (surinam grass; [6]) | Plant response rating, B. signalgrass (surinam grass; [7]) | B. signalgrass plant response rating (surinam grass; Rate 500 g/ha, Postemergence, scale 0 to 10, 0 no effect, 10 complete control) | Cocklebur plant response rating (cocklebur; [1]) | Cocklebur plant response rating (cocklebur; [2]) | Cocklebur plant response rating (0 to 10 scale) (cocklebur; [3]) | Cocklebur plant response rating (cocklebur; [4]) | Cocklebur plant response rating (cocklebur; [5]) | Cocklebur plant response rating (cocklebur; [6]) | Plant response rating, Cocklebur (cocklebur; [7]) | Cocklebur plant response rating (cocklebur; [8]) | Corn plant response rating (corn; [1]) | Corn plant response rating (corn; [2]) | Corn plant response rating (0 to 10 scale) (corn; [3]) | Corn plant response rating (corn; [4]) | Corn plant response rating (corn; [5]) | Corn plant response rating (corn; [6]) | Plant response rating, Corn (corn; [7]) | Corn plant response rating (corn; [8]) | Giant foxtail plant response rating (giant foxtail; [1]) | Giant foxtail plant response rating (giant foxtail; [2]) | Giant foxtail plant response rating (0 to 10 scale) (giant foxtail; [3]) | Giant foxtail plant response rating (giant foxtail; [4]) | Giant foxtail plant response rating (giant foxtail; [5]) | Giant foxtail plant response rating (giant foxtail; [6]) | Plant response rating, Giant foxtail (giant foxtail; [7]) | Giant foxtail plant response rating (giant foxtail; [8]) | Morningglory plant response rating (morningglory; [1]) | Morningglory plant response rating (morningglory; [2]) | Morningglory plant response rating (0 to 10 scale) (morningglory; [3]) | Morningglory plant response rating (morningglory; [4]) | Morningglory plant response rating (morningglory; [5]) | Morningglory plant response rating (morningglory; [6]) | Plant response rating, Morningglory (morningglory; [7]) | Morningglory plant response rating (morningglory; [8]) | Redroot pigweed plant response rating (pigweed; [1]) | Redroot pigweed plant response rating (pigweed; [2]) | Redroot pigweed plant response rating (0 to 10 scale) (pigweed; [3]) | Redroot pigweed plant response rating (pigweed; [4]) | Redroot pigweed plant response rating (pigweed; [5]) | Redroot pigweed plant response rating (pigweed; [6]) | Plant response rating, Redroot pigweed (pigweed; [7]) | Redroot pigweed plant response rating (pigweed; [8]) | Rape plant response rating (rape; [1]) | Rape plant response rating (rape; [2]) | Rape plant response rating (0 to 10 scale) (rape; [3]) | Rape plant response rating (rape; [4]) | Rape plant response rating (rape; [5]) | Rape plant response rating (rape; [6]) | Plant response rating, Rape (rape; [7]) | Rape plant response rating (rape; [8]) | Soybean plant response rating (soybean; [1]) | Soybean plant response rating (soybean; [2]) | Soybean plant response rating (0 to 10 scale) (soybean; [3]) | Soybean plant response rating (soybean; [4]) | Soybean plant response rating (soybean; [5]) | Soybean plant response rating (soybean; [6]) | Plant response rating, Soybean (soybean; [7]) | Soybean plant response rating (soybean; [8]) | Sugarbeets plant response rating (sugar beet; [1]) | Sugarbeets plant response rating (sugar beet; [2]) | Sugarbeets plant response rating (0 to 10 scale) (sugar beet; [3]) | Sugarbeets plant response rating (sugar beet; [4]) | Sugarbeets plant response rating (sugar beet; [5]) | Sugarbeets plant response rating (sugar beet; [6]) | Plant response rating, Sugarbeets (sugar beet; [7]) | Sugarbeets plant response rating (sugar beet; [8]) | Velvetleaf plant response rating (velvetleaf; [2]) | Velvetleaf plant response rating (0 to 10 scale) (velvetleaf; [3]) | Velvetleaf plant response rating (velvetleaf; [4]) | Velvetleaf plant response rating (velvetleaf; [5]) | Plant response rating, Velvetleaf (velvetleaf; [7]) | Velvetleaf plant response rating (velvetleaf; [8]) | Wheat plant response rating (wheat; [2]) | Wheat plant response rating (0 to 10 scale) (wheat; [3]) | Wheat plant response rating (wheat; [4]) | Wheat plant response rating (wheat; [5]) | Plant response rating, Wheat (wheat; [7]) | Wheat plant response rating (wheat; [8]) | Wild oats plant response rating (wild oat; [2]) | Wild oats plant response rating (0 to 10 scale) (wild oat; [3]) | Wild oats plant response rating (wild oat; [4]) | Wild oats plant response rating (wild oat; [5]) | Plant response rating, Wild oats (wild oat; [7]) | Wild oats plant response rating (wild oat; [8]) | Rice plant response rating (rice; [9]) | Rice plant response rating (rice; [10]) | Plant response rating, Rice (rice; [11]) | Rice plant response rating (rice; [12]) | S. Flatsedge plant response rating (smallflower flatsedge; [9]) | S. Flatsedge plant response rating (smallflower flatsedge; [10]) | Plant response rating, S. Flatsedge (smallflower flatsedge; [11]) | S. Flatsedge plant response rating (smallflower flatsedge; [12])
